Reference: US9023865B2, “Compounds that are ERK inhibitors” (Merck Sharp & Dohme Corp., priority 2011, dated 2015)

The compounds below were run against Active Human ERK2 (hERK2) (Homo sapiens (Human), UniProt P28482) (assay: Active Human ERK2 (hERK2) Activity Assay (IMAP-FP)). Conditions: phosphorylated active hERK2, 30 μM ATP; average; read-out: ERK 2 Human average IC50.
Sequence of Active Human ERK2 (hERK2) (P28482 whole entry): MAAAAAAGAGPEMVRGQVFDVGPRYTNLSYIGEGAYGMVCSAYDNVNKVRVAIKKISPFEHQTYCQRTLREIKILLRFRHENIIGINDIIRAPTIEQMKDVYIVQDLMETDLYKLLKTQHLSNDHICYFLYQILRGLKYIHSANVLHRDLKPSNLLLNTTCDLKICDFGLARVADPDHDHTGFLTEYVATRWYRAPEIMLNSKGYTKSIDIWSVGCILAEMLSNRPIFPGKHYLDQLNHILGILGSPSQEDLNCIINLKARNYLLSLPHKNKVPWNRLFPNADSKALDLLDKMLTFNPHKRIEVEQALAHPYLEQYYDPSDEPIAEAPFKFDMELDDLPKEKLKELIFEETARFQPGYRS
Assay type: biochemical
Procedure, shortened: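 Reaction contains 0.5 nM activated hERK2, 900 nM unlabeled plus 80 nM labeled peptide and 30 μM ATP, run 60 min. Quenched with IMAP binding beads in buffer with 24 mM NaCl; fluorescence polarization read after 60 min binding equilibration.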
`Cc1cc(-c2n[nH]c3cc(NC(=O)NCC4(c5ccc(F)cc5)CC4)ncc23)ccn1` [Example 269] gave an IC50 of 2.81 nM. With `Cc1cc(-c2n[nH]c3cc(NC(=O)N[C@@H]4CCc5ccc(F)cc54)ncc23)ccn1` [Example 270] the IC50 was 3.73 nM. `Cc1cc(-c2n[nH]c3cc(NC(=O)NC4CC(C)(C)Oc5ccccc54)ncc23)ccn1` (centres unmarked) [Example 271] showed an IC50 of 5.93 nM. In the case of `Cc1cc(-c2n[nH]c3cc(NC(=O)NCc4ccc(F)cc4)ncc23)ccn1` [Example 273], the IC50 is reported as 0.945 nM. `Cc1cc(-c2n[nH]c3cc(NC(=O)NC4CCCOc5ccccc54)ncc23)ccn1` (centres unmarked) [Example 274] was tested, and the IC50 was 0.494 nM. `Cc1cc(-c2n[nH]c3cc(NC(=O)N[C@@H]4CCS(=O)(=O)c5ccccc54)ncc23)ccn1` [Example 275] gave an IC50 of 1.61 nM. Compound `Cc1cc(-c2n[nH]c3cc(NC(=O)N[C@H]4CCOc5cc(F)ccc54)ncc23)ccn1` [Example 276, 1-[(4S)-7-fluoro-3,4-dihydro-2H-chromen-4-yl]-3-[3-(2-methylpyridin-4-yl)-1H-pyrazolo[4,3-c]pyridin-6-yl]urea] has an IC50 of 14.7 nM. With `Cc1cc(-c2n[nH]c3cc(NC(=O)NC4CCN(S(C)(=O)=O)c5ccccc54)ncc23)ccn1` (centres unmarked) [Example 277] the IC50 was 1.35 nM. For `Cc1cc(-c2n[nH]c3cc(NC(=O)N4CC(c5cccc(F)c5)C4)ncc23)ccn1` [Example 278], the IC50 was 43.4 nM. `Cc1cc(-c2n[nH]c3cc(NC(=O)N[C@H](c4ccc(F)cc4)C(F)(F)F)ncc23)ccn1` [Example 279] was tested, and the IC50 was 113 nM. Work on `Cc1cc(-c2n[nH]c3cc(NC(=O)N[C@@H](c4ccc(F)cc4)C(F)(F)F)ncc23)ccn1` [Example 280] yielded an IC50 of 9.83 nM. `C[C@@H](NC(=O)Nc1cc2[nH]nc(-c3ccnc(N4CCOCC4)c3)c2cn1)c1ccc(F)cc1` [Example 281] was tested, and the IC50 was 1.91 nM. For `C[C@@H](NC(=O)Nc1cc2[nH]nc(-c3ccc(=O)[nH]c3)c2cn1)c1ccc(F)cc1` [Example 282], the IC50 was 0.304 nM. `Cc1cc(-c2n[nH]c3cc(NC(=O)NC4CCc5cc(Cl)ccc54)ncc23)ccn1` (centres unmarked) [Example 283] showed an IC50 of 86 nM. `Cc1cc(-c2n[nH]c3cc(NC(=O)N[C@H]4CCCOc5ccccc54)ncc23)ccn1` [Example 284] gave an IC50 of 8.28 nM. With `Cc1cc(-c2n[nH]c3cc(NC(=O)N[C@@H]4CCCOc5ccccc54)ncc23)ccn1` [Example 285] the IC50 was 0.382 nM. In the case of `Cc1cc(-c2n[nH]c3cc(NC(=O)NC4CCOc5cc(F)ccc54)ncc23)ccn1` (centres unmarked) [Example 286], the IC50 is reported as 9.59 nM. Compound `Cc1cc(-c2n[nH]c3cc(NC(=O)N4CCN(c5ccc(F)cc5)C[C@H]4C)ncc23)ccn1` [Example 288] has an IC50 of 2290 nM. `COCCn1cc(-c2n[nH]c3cc(NC(=O)N[C@H](C)c4ccccc4)ncc23)cn1` [Example 289] was tested, and the IC50 was 28 nM. `C[C@@H](NC(=O)Nc1cc2[nH]nc(-c3cnc(O)nc3)c2cn1)c1ccccc1` [Example 290] gave an IC50 of 0.366 nM. For `C[C@@H](NC(=O)Nc1cc2[nH]nc(-c3cnc(-n4cccn4)nc3)c2cn1)c1ccccc1` [Example 291], the IC50 was 4.44 nM. `C[C@@H](NC(=O)Nc1cc2[nH]nc(-c3cnc(N(C)S(C)(=O)=O)nc3)c2cn1)c1ccccc1` [Example 292] gave an IC50 of 3.6 nM. In the case of `COCCN(C)c1ncc(-c2n[nH]c3cc(NC(=O)N[C@H](C)c4ccccc4)ncc23)cn1` [Example 293], the IC50 is reported as 24.3 nM. With `C[C@@H](NC(=O)Nc1cc2[nH]nc(-c3ccn4ncnc4c3)c2cn1)c1ccccc1` [Example 294] the IC50 was 0.665 nM. With `O=C(Nc1cc2[nH]nc(C3CC3)c2cn1)N[C@@H]1CCCOc2ccccc21` [Example 295] the IC50 was 2.67 nM. Work on `COC[C@@H](NC(=O)Nc1cc2[nH]nc(-c3ccc(N4CCOCC4)nc3)c2cn1)c1ccc(F)cc1` [Example 297] yielded an IC50 of 1.05 nM. For `COC[C@@H](NC(=O)Nc1cc2[nH]nc(-c3ccnc(N4CCOCC4)c3)c2cn1)c1ccc(F)cc1` [Example 298], the IC50 was 1.17 nM. For `COC[C@@H](NC(=O)Nc1cc2[nH]nc(-c3ccn4ncnc4c3)c2cn1)c1ccc(F)cc1` [Example 300], the IC50 was 1.34 nM. `COC[C@@H](NC(=O)Nc1cc2[nH]nc(-c3ccc4c(c3)nnn4C)c2cn1)c1ccc(F)cc1` [Example 301] showed an IC50 of 0.562 nM.
